pIC50: −log10 of the molar value.
What was measured:
[1] = tested on: Jurkat cells transfected with a human interleukin-2 promoter/reporter gene construct; experiment: CD28 Costimulation Assay; format: cell-based; conditions: IL-2 promoter luciferase reporter, 5.5 hours, read-out: IC50, inhibition of anti-T cell receptor/anti-CD28 and PMA/ionomycin stimulated Jurkat cells
Method: The assay is performed with Jurkat cells transfected with a human interleukin-2 promoter/reporter gene construct as described by Baumann G et al. in Transplant. Proc. 1992; 24:43-8, the β-galactosidase reporter gene being replaced by the luciferase gene (de Wet J., et al., Mol. Cell. Biol. 1987, 7(2), 725-737). Cells are stimulated by solid phase-coupled antibodies or phorbol myristate acetate (PMA) and the Ca^++ ionophore ionomycin as follows. For antibody-mediated stimulation Microlite TM1 microtiter plates (Dynatech) are coated with 3 μg/ml goat anti-mouse IgG Fc antibodies (Jackson) in 55 μl phosphate-buffered saline (PBS) per well for three hours at RT. Plates are blocked after removing the antibodies by incubation with 2% bovine serum albumin (BSA) in PBS (300 μl per well) for 2 hours at RT. […] After incubation for 5.5 hours at 37° C. in 5% CO2, the level of luciferase is determined by bioluminescence measurement. […] Luciferase activity is assessed with a bioluminescence reader (Labsystem, Helsinki, Finland) after automatic addition of 50 μl per well luciferase reaction buffer containing 20 mM Tricine, 1.07 mM (MgCO3)4Mg(OH)2×5H2O, 2.67 mM MgSO4, 0.1 mM EDTA, 33.3 mM DTT, 270 μM coenzyme A, 470 μM luciferin (Chemie Brunschwig AG), 530 μM ATP, pH 7.8. […] The inhibition obtained in the presence of a test compound is calculated as percent inhibition of the high control.

[2] = tested on: spleen cells from CBA and BALB/c mice; experiment: Allogeneic Mixed Lymphocyte Reaction (MLR); format: cell-based; conditions: CBA and BALB/c mouse spleen cells, 3H-thymidine incorporation after four days, read-out: IC50, inhibition of proliferation in two-way MLR
Method: Briefly, spleen cells from CBA and BALB/c mice (1.6×10^5 cells from each strain per well in flat bottom tissue culture microtiter plates, 3.2×10^5 in total) are incubated in RPMI medium containing 10% FCS, 100 U/ml penicillin, 100 μg/ml streptomycin (Gibco BRL, Basel, Switzerland), 50 μM 2-mercaptoethanol (Fluka, Buchs, Switzerland) and serially diluted compounds. Seven three-fold dilution steps in duplicates per test compound are performed. After four days of incubation 1 μCi ^3H-thymidine is added. Cells are harvested after an additional five-hour incubation period, and incorporated ^3H-thymidine is determined according to standard procedures. Background values (low control) of the MLR are the proliferation of BALB/c cells alone. Low controls are subtracted from all values. High controls without any sample are taken as 100% proliferation.

[3] = target: T1, Human recombinant PKCβ1 (Homo sapiens, UniProt P05771); experiment: Protein Kinase Cβ1 Assay; format: biochemical; conditions: human recombinant PKCβ1, 10 μM 33P-ATP
T1 construct: purchased Oxford Biomedical Research
T1 sequence (P05771 whole entry): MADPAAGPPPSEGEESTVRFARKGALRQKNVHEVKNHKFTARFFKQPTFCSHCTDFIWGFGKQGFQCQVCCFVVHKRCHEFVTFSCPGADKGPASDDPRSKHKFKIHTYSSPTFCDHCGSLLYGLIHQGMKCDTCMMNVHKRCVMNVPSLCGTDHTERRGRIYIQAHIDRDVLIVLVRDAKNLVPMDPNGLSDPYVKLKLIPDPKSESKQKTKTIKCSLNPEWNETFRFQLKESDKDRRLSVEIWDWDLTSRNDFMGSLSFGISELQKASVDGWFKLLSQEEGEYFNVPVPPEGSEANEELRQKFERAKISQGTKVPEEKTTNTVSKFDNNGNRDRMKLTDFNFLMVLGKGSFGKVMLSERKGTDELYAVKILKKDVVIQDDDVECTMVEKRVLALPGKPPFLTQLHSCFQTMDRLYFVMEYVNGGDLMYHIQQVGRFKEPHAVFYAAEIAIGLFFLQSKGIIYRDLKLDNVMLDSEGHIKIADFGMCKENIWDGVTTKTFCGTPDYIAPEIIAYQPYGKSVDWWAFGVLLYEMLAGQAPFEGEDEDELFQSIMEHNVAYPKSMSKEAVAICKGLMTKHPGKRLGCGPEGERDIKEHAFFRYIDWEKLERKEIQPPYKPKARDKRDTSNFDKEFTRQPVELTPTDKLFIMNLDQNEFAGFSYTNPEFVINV
Method: (§1) The compounds of the invention are tested for their activity on different PKC isoforms according to the following method. Assay is performed in a white with clear bottom 384-well microtiterplate with non-binding surface. The reaction mixture (25 μl) contains 1.5 μM of a tridecapeptide acceptor substrate that mimics the pseudo substrate sequence of PKC α with the Ala→Ser replacement, 10 μM ^33P-ATP, 10 mM Mg(NO3)2, 0.2 mM CaCl2, […] at a protein concentration varying from 25 to 400 ng/ml (depending on the isotype used), lipid vesicles (containing 30 mol % phosphatidylserine, 5 mol % DAG and 65 mol % phosphatidylcholine) at a final lipid concentration of 0.5 mM, in 20 mM Tris-HCl buffer pH 7.4+0.1% BSA. Incubation is performed for 60 min at room temperature.
Human recombinant PKCβ1 is obtained from Oxford Biomedical Research and is used under the assay conditions as described under Section A.1 above.

[4] = target: Human recombinant PKCθ (Homo sapiens, UniProt Q04759); experiment: Protein Kinase Cθ Assay; format: biochemical; conditions: 10 μM 33P-ATP
Human recombinant PKCθ, sequence (Q04759 whole entry): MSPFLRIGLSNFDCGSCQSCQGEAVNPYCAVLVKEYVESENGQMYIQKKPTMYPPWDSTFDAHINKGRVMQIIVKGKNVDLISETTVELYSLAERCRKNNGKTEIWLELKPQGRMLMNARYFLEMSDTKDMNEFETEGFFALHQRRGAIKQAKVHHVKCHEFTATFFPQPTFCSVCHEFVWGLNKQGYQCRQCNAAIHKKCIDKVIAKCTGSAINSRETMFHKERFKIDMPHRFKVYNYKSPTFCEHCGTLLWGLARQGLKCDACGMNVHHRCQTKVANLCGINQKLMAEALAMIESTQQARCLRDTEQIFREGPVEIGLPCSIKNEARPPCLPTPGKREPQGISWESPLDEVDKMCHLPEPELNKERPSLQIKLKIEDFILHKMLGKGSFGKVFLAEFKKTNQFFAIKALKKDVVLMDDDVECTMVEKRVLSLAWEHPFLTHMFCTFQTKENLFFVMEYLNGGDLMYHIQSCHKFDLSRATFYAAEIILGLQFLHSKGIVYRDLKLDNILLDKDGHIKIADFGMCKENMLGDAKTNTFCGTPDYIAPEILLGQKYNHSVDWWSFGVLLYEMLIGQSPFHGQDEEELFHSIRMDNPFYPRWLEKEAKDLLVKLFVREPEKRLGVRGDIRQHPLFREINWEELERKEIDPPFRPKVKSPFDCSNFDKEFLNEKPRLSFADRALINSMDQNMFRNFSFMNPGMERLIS
Method: as §1
Human recombinant PKCθ is used under the assay conditions as described above.

[5] = target: T2, Human recombinant PKCε (Homo sapiens, UniProt Q02156); experiment: Protein Kinase Cε Assay; format: biochemical; conditions: 10 μM 33P-ATP
T2 construct: purchased Oxford Biomedical Research
T2 sequence (Q02156 1-737): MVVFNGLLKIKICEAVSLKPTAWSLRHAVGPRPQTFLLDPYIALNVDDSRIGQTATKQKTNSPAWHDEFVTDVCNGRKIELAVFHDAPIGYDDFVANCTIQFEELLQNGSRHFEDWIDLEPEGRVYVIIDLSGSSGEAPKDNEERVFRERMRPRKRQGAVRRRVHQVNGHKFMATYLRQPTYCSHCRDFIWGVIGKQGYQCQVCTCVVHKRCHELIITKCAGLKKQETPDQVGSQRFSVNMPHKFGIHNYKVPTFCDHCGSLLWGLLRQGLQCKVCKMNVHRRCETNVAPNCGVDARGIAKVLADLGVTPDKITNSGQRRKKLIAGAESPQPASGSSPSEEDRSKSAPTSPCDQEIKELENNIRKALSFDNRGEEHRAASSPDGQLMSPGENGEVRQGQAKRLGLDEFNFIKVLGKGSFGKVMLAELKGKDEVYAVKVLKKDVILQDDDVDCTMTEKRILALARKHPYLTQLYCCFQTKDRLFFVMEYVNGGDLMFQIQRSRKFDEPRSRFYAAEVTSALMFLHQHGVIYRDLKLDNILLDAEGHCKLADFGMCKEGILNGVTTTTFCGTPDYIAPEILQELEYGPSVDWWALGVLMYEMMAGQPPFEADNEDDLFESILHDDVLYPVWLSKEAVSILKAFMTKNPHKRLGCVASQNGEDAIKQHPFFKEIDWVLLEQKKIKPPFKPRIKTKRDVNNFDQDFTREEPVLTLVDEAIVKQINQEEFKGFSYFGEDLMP
Method: as §1
Human recombinant PKCε is obtained from Oxford Biomedical Research and is used under the assay conditions as described under Section A.1 above.

[6] = target: T3, Human recombinant PKCη (Homo sapiens, UniProt P24723); experiment: Protein Kinase Cη Assay; format: biochemical; conditions: 10 μM 33P-ATP
T3 construct: purchased PanVera
T3 sequence (P24723 whole entry): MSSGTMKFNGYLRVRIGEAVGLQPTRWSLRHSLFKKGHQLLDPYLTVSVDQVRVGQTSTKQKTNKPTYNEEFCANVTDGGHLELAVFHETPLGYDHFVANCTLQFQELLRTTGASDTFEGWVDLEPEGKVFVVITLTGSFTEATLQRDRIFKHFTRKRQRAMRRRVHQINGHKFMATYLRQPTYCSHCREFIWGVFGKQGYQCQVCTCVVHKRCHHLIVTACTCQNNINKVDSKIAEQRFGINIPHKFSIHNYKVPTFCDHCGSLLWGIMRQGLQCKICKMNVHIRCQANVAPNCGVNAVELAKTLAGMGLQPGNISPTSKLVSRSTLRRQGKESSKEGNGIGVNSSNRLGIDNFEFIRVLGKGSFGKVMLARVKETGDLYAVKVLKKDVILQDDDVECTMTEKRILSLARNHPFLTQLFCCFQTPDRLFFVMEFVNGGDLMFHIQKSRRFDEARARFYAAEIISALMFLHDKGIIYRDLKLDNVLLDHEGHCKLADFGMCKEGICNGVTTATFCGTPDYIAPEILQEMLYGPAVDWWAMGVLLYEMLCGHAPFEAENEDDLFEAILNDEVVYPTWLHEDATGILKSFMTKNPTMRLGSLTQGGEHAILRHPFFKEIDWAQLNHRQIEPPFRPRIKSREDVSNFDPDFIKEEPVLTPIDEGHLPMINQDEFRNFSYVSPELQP
Method: as §1
Human recombinant PKCη is obtained from PanVera and is used under the assay conditions as described under Section A.1 above.

[7] = target: T4, Human recombinant PKCδ (Homo sapiens, UniProt Q05655); experiment: Protein Kinase Cδ Assay; format: biochemical; conditions: 10 μM 33P-ATP
T4 construct: purchased Oxford Biomedical Research
T4 sequence (Q05655 whole entry): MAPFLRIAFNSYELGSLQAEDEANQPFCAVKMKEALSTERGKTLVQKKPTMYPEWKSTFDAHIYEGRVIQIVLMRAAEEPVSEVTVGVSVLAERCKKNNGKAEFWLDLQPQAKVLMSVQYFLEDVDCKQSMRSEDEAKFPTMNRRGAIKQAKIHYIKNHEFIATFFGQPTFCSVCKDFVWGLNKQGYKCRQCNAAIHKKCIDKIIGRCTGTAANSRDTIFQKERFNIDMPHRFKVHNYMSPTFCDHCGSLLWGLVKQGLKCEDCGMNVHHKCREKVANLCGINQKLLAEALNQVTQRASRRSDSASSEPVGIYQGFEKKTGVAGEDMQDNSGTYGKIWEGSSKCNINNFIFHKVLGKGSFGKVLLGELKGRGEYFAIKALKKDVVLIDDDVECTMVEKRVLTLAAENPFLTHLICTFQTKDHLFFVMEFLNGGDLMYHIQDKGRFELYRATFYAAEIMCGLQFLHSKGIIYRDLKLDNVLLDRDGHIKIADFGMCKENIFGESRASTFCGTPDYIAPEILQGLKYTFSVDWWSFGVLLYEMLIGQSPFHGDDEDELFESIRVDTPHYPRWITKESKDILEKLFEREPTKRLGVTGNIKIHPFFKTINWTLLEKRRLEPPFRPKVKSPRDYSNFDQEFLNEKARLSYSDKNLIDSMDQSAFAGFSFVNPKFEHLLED
Method: as §1
Human recombinant PKCδ is obtained from Oxford Biomedical Research and is used under the assay conditions as described under Section A.1 above.

[8] = target: T5, Human recombinant PKCα (Homo sapiens, UniProt P17252); experiment: Protein Kinase Cα Assay; format: biochemical; conditions: 10 μM 33P-ATP
T5 construct: purchased Oxford Biomedical Research
Method: as §1
Human recombinant PKCα is obtained from Oxford Biomedical Research and is used under the assay conditions as described under Section A.1 above.

Row | SMILES | pIC50 [1] | pIC50 [2] | pIC50 [3] | pIC50 [4] | pIC50 [5] | pIC50 [6] | pIC50 [7] | pIC50 [8]
1 | CNCc1ccc2c(C3=C(c4c[nH]c5c(C)cccc45)C(=O)NC3=O)c(Cl)ccc2c1 [example 7] | 7.56 | 6.28 | 8.55 | 8.19 |  |  |  | 
2 | CN(C)Cc1ccc2c(C3=C(c4cn(C)c5ccccc45)C(=O)NC3=O)c(Cl)ccc2c1 [example 1, 3-(2-Chloro-6-dimethylaminomethyl-naphthalen-1-yl)-4-(1-methyl-1H-indol-3-yl)-pyrrole-2,5-dione] |  |  |  | 7.72 | 7.75 |  |  | 
3 | CN(C)Cc1ccc2c(C3=C(c4c[nH]c5ccccc45)C(=O)NC3=O)c(Cl)ccc2c1 [example 4] |  |  |  |  |  | 8.14 | 8.03 | 
4 | CNCc1ccc2c(C3=C(c4c[nH]c5ccccc45)C(=O)NC3=O)c(Cl)ccc2c1 [example 6] |  |  |  |  | 8.64 |  |  | 8.96
5 | Cc1cccc2c(C3=C(c4cccc5cc(CN)ccc45)C(=O)NC3=O)c[nH]c12 [example 3] |  |  |  |  |  | 7.27 |  | 
6 | Cc1cccc2c(C3=C(c4c(Cl)ccc5cc(CN(C)C)ccc45)C(=O)NC3=O)c[nH]c12 [example 5] | 7.94 | 6.74 | 8.64 |  |  |  | 8.35 | 9.05
